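Growth conditions: 96-well plates. Treatment: test compound, 48 hours, 5 concentrations. Analysis: linear interpolation between bracketing concentrations; unreached endpoints set to highest concentration. TGI: concentration producing complete growth inhibition.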

Test systems include COLO 205 colon; HT29 colon; EKVX NSCLC; NCI-H226 lung; OVCAR-4 ovarian; 786-0 renal; UO-31 renal; CAKI-1 renal; SF-268 CNS; A498 renal; IGROV1 ovarian; HOP-92 NSCLC; DU-145 prostate.
Common to all, as to test: NCI tumour cell line growth inhibition, 48 h

For the molecule `CCCCn1c(-c2ccccc2)cs/c1=N\N=C1C=C(C(C)(C)C)C(=O)C(C(C)(C)C)=C1`, the TGI in the experiment with COLO 205 colon, in the experiment with HT29 colon, in the experiment on EKVX NSCLC, in the experiment with NCI-H226 lung, in the experiment with OVCAR-4 ovarian and in the experiment with 786-0 renal was greater than 100 µM in each case. In addition, the TGI with UO-31 renal, in the experiment on CAKI-1 renal, in the experiment on SF-268 CNS, in the experiment with A498 renal and with IGROV1 ovarian was greater than 100 µM throughout.
With `Cn1c(N/N=C/c2ccccc2)nc(-c2ccc3c(c2)OCO3)c(C#N)c1=O`, the TGI with COLO 205 colon was greater than 100 µM; in the experiment on HT29 colon, greater than 100 µM; in the experiment with EKVX NSCLC, greater than 100 µM; with HOP-92 NSCLC it was 67.2 µM; with OVCAR-4 ovarian, greater than 100 µM; in the experiment with 786-0 renal, greater than 100 µM. Also, the TGI in the experiment on UO-31 renal, in the experiment with DU-145 prostate, in the experiment with CAKI-1 renal, in the experiment on SF-268 CNS, in the experiment on A498 renal and with IGROV1 ovarian was greater than 100 µM in each case.
For `N#C/C(=C\c1ccc(O)c(O)c1)c1c(C#N)c(N)nn1-c1ccccc1`, the TGI is 61.1 µM in the experiment on COLO 205 colon; 65.8 µM with HT29 colon; 69.7 µM in the experiment with EKVX NSCLC; greater than 100 µM in the experiment with HOP-92 NSCLC; 38.7 µM with OVCAR-4 ovarian; 21.1 µM in the experiment with 786-0 renal. Moreover, the TGI with UO-31 renal was 62 µM; in the experiment with CAKI-1 renal it was 9.05 µM; in the experiment on SF-268 CNS it was greater than 100 µM; with A498 renal, 9.63 µM; with IGROV1 ovarian it was 14.5 µM.
As for `C/C(=C1/N=C(c2cc([N+](=O)[O-])ccc2Cl)N(c2ccc(Br)cc2)C1=O)c1ccc(N(CCC#N)CCC#N)cc1C`, the TGI is 97 µM in the experiment on COLO 205 colon; greater than 100 µM in the experiment on HT29 colon; greater than 100 µM in the experiment on EKVX NSCLC; greater than 100 µM with HOP-92 NSCLC; greater than 100 µM in the experiment on NCI-H226 lung; greater than 100 µM with OVCAR-4 ovarian. Besides, the TGI in the experiment with 786-0 renal was greater than 100 µM; in the experiment on UO-31 renal, greater than 100 µM; in the experiment on CAKI-1 renal it was greater than 100 µM; in the experiment with SF-268 CNS, greater than 100 µM; with A498 renal it was 96.4 µM; with IGROV1 ovarian it was greater than 100 µM.
Consider `CCOC(=O)/C(Br)=C1\OC(=O)c2ccccc2-c2ccccc21`, for which the TGI was 49.9 µM in the experiment on COLO 205 colon; greater than 100 µM in the experiment with HT29 colon; greater than 100 µM in the experiment with EKVX NSCLC; 79.9 µM with HOP-92 NSCLC; 86.1 µM in the experiment on NCI-H226 lung; greater than 100 µM with 786-0 renal. For the same molecule, the TGI in the experiment on UO-31 renal, in the experiment on CAKI-1 renal, with SF-268 CNS and in the experiment with IGROV1 ovarian was greater than 100 µM throughout.
For the molecule `Oc1ccc(-c2c3ccccc3c(-c3ccc(O)cc3)c3ccccc23)cc1`, the TGI with COLO 205 colon, with HT29 colon, in the experiment on EKVX NSCLC, in the experiment on HOP-92 NSCLC, in the experiment on NCI-H226 lung and in the experiment with OVCAR-4 ovarian was greater than 100 µM in each case. Besides, the TGI in the experiment on 786-0 renal, with UO-31 renal, in the experiment on CAKI-1 renal, in the experiment with SF-268 CNS, in the experiment with A498 renal and with IGROV1 ovarian was greater than 100 µM throughout.
Take `CCN(CC)CC1CCCCN1CC(=O)N1c2cc(Cl)ccc2NC(=O)CC1C` (centres undefined): the TGI in the experiment with COLO 205 colon, in the experiment with EKVX NSCLC, in the experiment with HOP-92 NSCLC, with NCI-H226 lung, with OVCAR-4 ovarian and in the experiment with 786-0 renal was greater than 100 µM in each case. Moreover, the TGI in the experiment with UO-31 renal, with CAKI-1 renal, in the experiment with SF-268 CNS and in the experiment on A498 renal was greater than 100 µM each time.
`COc1ccc(CN(CCN(C)C)c2ccccn2)cc1` (tested in a mixture with another compound): the TGI with HT29 colon, in the experiment on HOP-92 NSCLC, in the experiment with 786-0 renal, in the experiment with UO-31 renal, with CAKI-1 renal and in the experiment on SF-268 CNS was greater than 100 µM throughout. For the same molecule, the TGI in the experiment with A498 renal and with IGROV1 ovarian was greater than 100 µM throughout.
As to `COC1(OC)CC2C(=O)N(Cc3ccccc3)C1C(S(=O)(=O)c1ccccc1)C2C(C)S(=O)(=O)c1ccccc1` (centres undefined), the TGI with COLO 205 colon, in the experiment with HT29 colon, in the experiment on EKVX NSCLC, in the experiment with HOP-92 NSCLC, in the experiment with OVCAR-4 ovarian and in the experiment with 786-0 renal was greater than 100 µM in each case. For the same molecule, the TGI in the experiment with CAKI-1 renal, in the experiment with SF-268 CNS and in the experiment with IGROV1 ovarian was greater than 100 µM in each case.
For the molecule `c1ccc2c(c1)nnn2CNc1ccc(N2CCCCC2)cc1`, the TGI in the experiment with COLO 205 colon, in the experiment with HT29 colon, with EKVX NSCLC, with HOP-92 NSCLC, with NCI-H226 lung and in the experiment with OVCAR-4 ovarian was greater than 100 µM throughout. Also, the TGI with 786-0 renal, in the experiment with UO-31 renal, in the experiment on SF-268 CNS, in the experiment on A498 renal and in the experiment with IGROV1 ovarian was greater than 100 µM in each case.
For the molecule `COc1ccccc1-n1cnc2c1NC(C)(C)N=C2C(N)=O`, the TGI in the experiment on COLO 205 colon, in the experiment on HT29 colon, with EKVX NSCLC, with NCI-H226 lung, with OVCAR-4 ovarian and in the experiment with 786-0 renal was greater than 100 µM throughout. Also, the TGI in the experiment with DU-145 prostate, in the experiment on CAKI-1 renal, with SF-268 CNS, in the experiment on A498 renal and in the experiment on IGROV1 ovarian was greater than 100 µM throughout.
On to `Oc1cc(O)c2c(c1)O[C@H](c1ccc(O)c(O)c1)[C@@H](O)C2`, for which the TGI with COLO 205 colon, in the experiment on HT29 colon, with EKVX NSCLC, in the experiment on HOP-92 NSCLC, with NCI-H226 lung and with OVCAR-4 ovarian was greater than 100 µM each time. Further, the TGI with 786-0 renal, with UO-31 renal, in the experiment with DU-145 prostate, in the experiment on CAKI-1 renal, with SF-268 CNS and with IGROV1 ovarian was greater than 100 µM in each case.

The values are drawn from PubChem BioAssay (NCI).
